Assay results published in PubChem BioAssay AID330 (DTP/NCI, 2004).
Where “and” joins values, the source holds several entries; their conditions need not be identical. Equal values may be shown once. Toxic doses and inconclusive results are not listed.

System: P388 leukemia ip, CD2F1 mice, survival T/C
Test: NCI In Vivo Anticancer Drug Screen. Data for tumor model P388 Leukemia (intraperitoneal) in CD2F1 (CDF1) mice
Conditions: endpoint: median survival time, higher = longer survival
Procedure, shortened: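 Mice carrying the transplanted tumor received test compound or vehicle. Survival was recorded in each group, and the value is the treated-group measurement divided by that of the vehicle-treated control group.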

[1] = dose: 25.0 mg/kg/injection, schedule: Q01DX005 (ip), vehicle: Klucel (hydroxypropylcellulose) (HPC)
[2] = dose: 50.0 mg/kg/injection, schedule: Q01DX005 (ip), vehicle: Klucel (hydroxypropylcellulose) (HPC)
[3] = dose: 100.0 mg/kg/injection, schedule: Q01DX005 (ip), vehicle: Klucel (hydroxypropylcellulose) (HPC)
[4] = dose: 200.0 mg/kg/injection, schedule: Q01DX005 (ip), vehicle: Klucel (hydroxypropylcellulose) (HPC)
[5] = dose: 50.0 mg/kg/injection, schedule: Q01DX009 (ip), vehicle: Klucel (hydroxypropylcellulose) (HPC)
[6] = dose: 100.0 mg/kg/injection, schedule: Q01DX009 (ip), vehicle: Klucel (hydroxypropylcellulose) (HPC)
[7] = dose: 50.0 mg/kg/injection, schedule: Q01DX005 (ip), vehicle: saline with Tween-80
[8] = dose: 100.0 mg/kg/injection, schedule: Q01DX005 (ip), vehicle: saline with Tween-80
[9] = dose: 100.0 mg/kg/injection, schedule: Q01DX001 (ip), vehicle: saline with Tween-80
[10] = dose: 200.0 mg/kg/injection, schedule: Q01DX001 (ip), vehicle: saline with Tween-80
[11] = dose: 50.0 mg/kg/injection, schedule: Q01DX009 (ip), vehicle: saline with Tween-80
[12] = dose: 100.0 mg/kg/injection, schedule: Q01DX009 (ip), vehicle: saline with Tween-80
[13] = dose: 25.0 mg/kg/injection, schedule: Q01DX009 (ip), vehicle: saline
[14] = dose: 50.0 mg/kg/injection, schedule: Q01DX005 (ip), vehicle: saline
[15] = dose: 100.0 mg/kg/injection, schedule: Q01DX009 (ip), vehicle: saline
[16] = dose: 200.0 mg/kg/injection, schedule: Q01DX005 (ip), vehicle: saline

## CCOC(=O)/C=C1\COc2nc(N)[nH]c(=O)c2N1
dose: 12.5 mg/kg/injection, schedule: Q01DX005 (ip), vehicle: Klucel (hydroxypropylcellulose) (HPC)
  T/C: 93 % of control
[1]
  T/C: 91 % of control
[2]
  T/C: 89 % of control
[3]
  T/C: 94 % of control
[4]
  T/C: 91 % of control

## COc1ccc(C(=O)Nc2cccnc2)cc1
[5]
  T/C: 98 % of control
[6]
  T/C: 100 % of control
dose: 200.0 mg/kg/injection, schedule: Q01DX009 (ip), vehicle: Klucel (hydroxypropylcellulose) (HPC)
  T/C: 98 % of control

## C=C(C(=O)N(C(C)C)C(C)C)C(C)CC(C)C(=O)N(C(C)C)C(C)C (configuration not stated)
dose: 50.0 mg/kg/injection, schedule: Q04DX002 (ip), vehicle: Klucel (hydroxypropylcellulose) (HPC)
  T/C: 99 % of control
dose: 100.0 mg/kg/injection, schedule: Q04DX002 (ip), vehicle: Klucel (hydroxypropylcellulose) (HPC)
  T/C: 104 % of control
dose: 200.0 mg/kg/injection, schedule: Q04DX002 (ip), vehicle: Klucel (hydroxypropylcellulose) (HPC)
  T/C: 107 % of control
dose: 400.0 mg/kg/injection, schedule: Q04DX002 (ip), vehicle: Klucel (hydroxypropylcellulose) (HPC)
  T/C: 104 % of control

## OCCN1CCOC(O)(c2cccc(C(F)(F)F)c2)C1 (configuration not stated)
[7]
  T/C: 101 % of control
[8]
  T/C: 95 % of control
dose: 200.0 mg/kg/injection, schedule: Q01DX005 (ip), vehicle: saline with Tween-80
  T/C: 96 % of control

## COC(=O)C(Cc1c[nH]c2ccccc12)NC(=O)c1ccccc1NC(=O)OCc1ccccc1 (configuration not stated)
dose: 17.5 mg/kg/injection, schedule: Q01DX005 (ip), vehicle: Klucel (hydroxypropylcellulose) (HPC)
  T/C: 103 % of control
dose: 35.0 mg/kg/injection, schedule: Q01DX005 (ip), vehicle: Klucel (hydroxypropylcellulose) (HPC)
  T/C: 104 % of control
dose: 70.0 mg/kg/injection, schedule: Q01DX005 (ip), vehicle: Klucel (hydroxypropylcellulose) (HPC)
  T/C: 97 % of control

## CC1CCCC/C1=N/SC(c1ccccc1)(c1ccccc1)c1ccccc1 (configuration not stated)
[9]
  T/C: 91 % of control
[10]
  T/C: 89 % of control
dose: 400.0 mg/kg/injection, schedule: Q01DX001 (ip), vehicle: saline with Tween-80
  T/C: 87 % of control

## COc1cc(/C=N/N2CC(=O)N(c3cccc(Cl)c3)CC2=O)cc(OC)c1
dose: 7.5 mg/kg/injection, schedule: Q01DX005 (ip), vehicle: saline with Tween-80
  T/C: 95 % of control
dose: 15.0 mg/kg/injection, schedule: Q01DX005 (ip), vehicle: saline with Tween-80
  T/C: 96 % of control
dose: 30.0 mg/kg/injection, schedule: Q01DX005 (ip), vehicle: saline with Tween-80
  T/C: 94 % of control

## CC1SC(c2ccc(Cl)cc2)N2C(=O)C(C)SC(c3ccc(Cl)cc3)N2C1=O (configuration not stated)
[11]
  T/C: 87 % of control
[12]
  T/C: 86 % of control

## NC(=O)CCNC(=O)CCCNC(=O)CCNC(=O)OCc1ccccc1
dose: 12.5 mg/kg/injection, schedule: Q01DX009 (ip), vehicle: distilled water + Tween-80
  T/C: 96 % of control
dose: 25.0 mg/kg/injection, schedule: Q01DX009 (ip), vehicle: distilled water + Tween-80
  T/C: 110 % of control
dose: 50.0 mg/kg/injection, schedule: Q01DX009 (ip), vehicle: distilled water + Tween-80
  T/C: 97 % of control
dose: 100.0 mg/kg/injection, schedule: Q01DX009 (ip), vehicle: distilled water + Tween-80
  T/C: 105 % of control
dose: 200.0 mg/kg/injection, schedule: Q01DX009 (ip), vehicle: distilled water + Tween-80
  T/C: 96 % of control

## O=C1NC(=O)C2C3OC(C12)C1C2C(=O)NC(=O)C2C31 (configuration not stated)
[7]
  T/C: 105 % of control
[8]
  T/C: 104 % of control

## Nc1nc(=S)c2ncn(C3CC(O)C(CO)O3)c2[nH]1 (configuration not stated)
dose: 10.0 mg/kg/injection, schedule: Q01DX009 (ip), vehicle: Klucel (hydroxypropylcellulose) (HPC)
  T/C: 118 % of control
dose: 12.5 mg/kg/injection, schedule: Q01DX005 (ip), vehicle: saline
  T/C: 118 % of control
dose: 12.5 mg/kg/injection, schedule: Q01DX005 (iv), vehicle: saline
  T/C: 101 % of control
dose: 12.5 mg/kg/injection, schedule: Q01DX009 (ip), vehicle: Klucel (hydroxypropylcellulose) (HPC)
  T/C: 122 % of control
dose: 20.0 mg/kg/injection, schedule: Q01DX009 (ip), vehicle: Klucel (hydroxypropylcellulose) (HPC)
  T/C: 95 % of control
dose: 25.0 mg/kg/injection, schedule: Q01DX005 (ip), vehicle: saline
  T/C: 109 % of control
dose: 25.0 mg/kg/injection, schedule: Q01DX005 (iv), vehicle: saline
  T/C: 102 % of control
dose: 25.0 mg/kg/injection, schedule: Q01DX009 (ip), vehicle: saline sonified
  T/C: 168 % of control
[13]
  T/C: 117 % of control
[14]
  T/C: 109 % of control
dose: 50.0 mg/kg/injection, schedule: Q01DX005 (iv), vehicle: saline
  T/C: 102 % of control and 106 % of control
[5]
  T/C: 118 % of control
[11]
  T/C: 162 % of control
dose: 100.0 mg/kg/injection, schedule: Q01DX005 (iv), vehicle: saline
  T/C: 103 % of control and 108 % of control
[6]
  T/C: 113 % of control
[15]
  T/C: 169 % of control
[16]
  T/C: 153 % of control
dose: 200.0 mg/kg/injection, schedule: Q01DX005 (iv), vehicle: saline
  T/C: 122 % of control
dose: 200.0 mg/kg/injection, schedule: Q01DX009 (ip), vehicle: saline
  T/C: 114 % of control

## O=C1c2ccccc2C(=O)c2cnccc21
[2]
  T/C: 109 % of control
[3]
  T/C: 106 % of control
[4]
  T/C: 106 % of control

## CC(C)(CN)SCc1ccccc1
[13]
  T/C: 100 % of control
dose: 25.0 mg/kg/injection, schedule: Q04DX003 (ip), vehicle: saline
  T/C: 100 % of control
dose: 50.0 mg/kg/injection, schedule: Q01DX009 (ip), vehicle: saline
  T/C: 100 % of control
dose: 50.0 mg/kg/injection, schedule: Q04DX003 (ip), vehicle: saline
  T/C: 86 % of control
[15]
  T/C: 100 % of control
dose: 100.0 mg/kg/injection, schedule: Q04DX003 (ip), vehicle: saline
  T/C: 90 % of control

## COC(=O)C1CC=C(c2ccccc2)CNC1 (configuration not stated)
[9]
  T/C: 93 % of control
[10]
  T/C: 94 % of control

## Cc1c2c(=O)oc3ccc(Cl)cc3c2nn1-c1ccccc1
dose: 60.0 mg/kg/injection, schedule: Q01DX005 (ip), vehicle: Klucel (hydroxypropylcellulose) (HPC)
  T/C: 96 % of control
dose: 120.0 mg/kg/injection, schedule: Q01DX005 (ip), vehicle: Klucel (hydroxypropylcellulose) (HPC)
  T/C: 93 % of control

## CNP1(NC)=NP(NC)(NC)=NP(NC)(NC)=NP(NC)(NC)=N1
[14]
  T/C: 115 % of control
dose: 100.0 mg/kg/injection, schedule: Q01DX005 (ip), vehicle: saline
  T/C: 110 % of control
[16]
  T/C: 104 % of control

## O=c1[nH]cnc2cc([N+](=O)[O-])ccc12
dose: 12.0 mg/kg/injection, schedule: Q01DX005 (ip), vehicle: Klucel (hydroxypropylcellulose) (HPC)
  T/C: 101 % of control
[1]
  T/C: 101 % of control
[2]
  T/C: 101 % of control and 106 % of control
[3]
  T/C: 111 % of control

## Nc1cc2c(cc1Br)-c1ccccc1C2=O
[11]
  T/C: 96 % of control
[12]
  T/C: 97 % of control
dose: 200.0 mg/kg/injection, schedule: Q01DX009 (ip), vehicle: saline with Tween-80
  T/C: 90 % of control

## CCCCN(CCCC)c1ccc(C(=NC(C)CCCN(CC)CC)c2ccc(N(C)C)cc2)cc1 (configuration not stated)
dose: 6.25 mg/kg/injection, schedule: Q01DX005 (ip), vehicle: saline with Tween-80
  T/C: 107 % of control
dose: 12.5 mg/kg/injection, schedule: Q01DX005 (ip), vehicle: saline with Tween-80
  T/C: 98 % of control
dose: 25.0 mg/kg/injection, schedule: Q01DX005 (ip), vehicle: saline with Tween-80
  T/C: 100 % of control

## CCn1c2ccccc2c2cc(N=Nc3ccc(N)c4ccccc34)ccc21
dose: 100.0 mg/kg/injection, schedule: Q04DX003 (ip), vehicle: Klucel (hydroxypropylcellulose) (HPC)
  T/C: 97 % of control
dose: 200.0 mg/kg/injection, schedule: Q04DX003 (ip), vehicle: Klucel (hydroxypropylcellulose) (HPC)
  T/C: 101 % of control
dose: 400.0 mg/kg/injection, schedule: Q04DX003 (ip), vehicle: Klucel (hydroxypropylcellulose) (HPC)
  T/C: 94 % of control

## COc1cc(C2c3cc4c(cc3C(OC3CCCCO3)C3COC(=O)C23)OCO4)cc(OC)c1OC (configuration not stated)
dose: 3.12 mg/kg/injection, schedule: Q01DX005 (ip), vehicle: Klucel (hydroxypropylcellulose) (HPC)
  T/C: 117 % of control
